In PubChem BioAssay (NCI) one finds GI50 and TGI data, which are given here for six compounds.

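In this assay, cells in 96-well plates receive the compound at five concentrations for 48 hours. Endpoints are linearly interpolated between the surrounding concentrations. GI50: concentration for 50% inhibition of growth. TGI is the concentration that stops growth completely.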

Common to all, as to assay: growth of human tumour cells (NCI), 48 h
The subject of assay [1] is HOP-92 NSCLC.
Assay [2] has as its system HOP-62 NSCLC.
The subject of assay [3] is SR leukemia.
The test system of assay [4] is MALME-3M melanoma.
The test system of assay [5] is MDA-MB-231 breast.
Assay [6] concerns SF-295 CNS.
Assay [7] has as its system TK-10 renal.
Assay [8] relates to SK-MEL-5 melanoma.
In assay [9] the test system is SN12C renal.
The subject of assay [10] is SNB-19 CNS.

On to `COC(=O)[C@H](Cc1cn(C)cn1)NC(=O)[C@@H](NC(=O)Nc1cc(C(F)(F)F)cc(C(F)(F)F)c1)C(C)C`, for which the GI50 is 5.48 µM in assay [1]; 2.91 µM in assay [2]; 3.08 µM in [3]; above 10 µM in assay [4]; 1.71 µM in assay [5]; above 10 µM in [6]. In addition, the GI50 in assay [7] is 9.9 µM; in [8], 2.98 µM; in assay [9] it was 1.88 µM; in assay [10], 6.71 µM. Further, the TGI in assay [1] was above 10 µM; in [2], 9.07 µM; in assay [3], above 10 µM; in [4] it was above 10 µM; in assay [5], 4.42 µM; in assay [6], above 10 µM. Further, the TGI in [7] is above 10 µM; in [8], above 10 µM; in assay [9], 3.97 µM; in [10], above 10 µM.

As for `COc1ccc(/C(CC2OC(=O)c3ccccc32)=N\NC(N)=O)cc1` (stereo not given), the TGI in [1], in assay [2], in [3], in assay [4], in assay [5] and in assay [6] was above 100 µM in each case. Moreover, the TGI in assay [7], in assay [8], in assay [9] and in assay [10] was above 100 µM throughout.

For the compound `Cn1ccnc1C(=O)/C=C/c1ccc(C(=O)Nc2c(F)c(F)c(F)c(F)c2F)cc1`, the GI50 in assay [1] was 2.11 µM; in assay [2], 2.77 µM; in assay [3] it was 0.339 µM; in assay [4], 2.1 µM; in assay [5], 2.27 µM; in assay [6] it was 1.85 µM. Besides, the GI50 in assay [7] was 1.76 µM; in assay [8], 1.79 µM; in [9] it was 1.77 µM; in assay [10] it was 1.56 µM. In addition, the TGI in [1] amounted to 7.33 µM; in [2], 8.71 µM; in assay [3] it was 2.26 µM; in assay [4] it was 5.91 µM; in assay [5], 6.7 µM; in [6] it was 3.64 µM. Moreover, the TGI worked out at 3.69 µM in assay [7], 3.28 µM in assay [8], 3.69 µM in [9] and 3.24 µM in [10].

Regarding `C#Cc1cccc(NC(=O)C2CCCN(C(=O)CCl)C2)c1` (stereo not given), the GI50 in assay [1] is above 82.5 µM; in assay [2], above 82.5 µM; in assay [3], 24.2 µM; in assay [4], 18.1 µM; in assay [5] it was above 82.5 µM; in [6], above 82.5 µM. The GI50 was above 82.5 µM in assay [7], 29.7 µM in assay [8], 19.7 µM in assay [9] and above 82.5 µM in [10]. Besides, the TGI in assay [1] is above 82.5 µM; in [2], above 82.5 µM; in assay [3] it was above 82.5 µM; in assay [4], 78.6 µM; in assay [5], above 82.5 µM; in [6] it was above 82.5 µM. Further, the TGI in [7], in [8], in assay [9] and in assay [10] was above 82.5 µM in each case.

For `Nc1ncnc2c1nc(Cl)n2C1OC(CO)C(O)C1O` (stereo not given), the TGI in [1] is above 66.2 µM; in assay [2] it was above 100 µM; in assay [3], above 100 µM; in assay [4], above 100 µM; in assay [5] it was above 100 µM; in assay [6], above 100 µM. Further, the TGI in assay [7] is above 32.7 µM; in assay [8], above 42.2 µM; in assay [9], above 100 µM; in assay [10], above 100 µM.

Take `OCCCCC#Cc1ccccc1C#Cc1ccc(C(F)(F)F)cc1`: the GI50 in assay [1] was 18 µM; in assay [2], 11.4 µM; in assay [3], 0.693 µM; in [4], 19.7 µM; in assay [5] it was 18.6 µM; in assay [6], 19.1 µM. Also, the GI50 in assay [7] was 11.9 µM; in [8] it was 17.8 µM; in assay [9], 15.8 µM; in [10], 17.3 µM. The TGI came to 34.9 µM in [1]; 24.3 µM in assay [2]; 31.8 µM in [3]; 35.5 µM in assay [4]; 34 µM in [5]; 34.5 µM in assay [6]. For the same compound, the TGI in assay [7] was 25.3 µM; in [8] it was 33.3 µM; in assay [9] it was 29.6 µM; in assay [10], 32.3 µM.
